According to US12371428B2 (Exelixis, Inc., priority 2019, dated 2025):
Where a name gives a salt, the structure may show the parent alone. Read-outs that look alike come from different tables or passages of the source.

Key:
[1] = target: Human KDR (residues 790-1356) (Homo sapiens (Human), UniProt P35968); experiment: Human KDR kinase assay, HTRF KinEase (Example B-2); format: biochemical
Protocol: (§1) Kinase activity and compound inhibition were also investigated using the HTRF® KinEase assay (Cisbio Cat #62TKOPEB) per manufacturer's instructions. In short, compounds were delivered in 300 nL volumes at 10 different concentrations in DMSO (3% final) to empty 384-well assay plates (Corning cat #3824). A mixture of enzyme, […] biotynlated peptide substrate, and buffer in 10 μL volume was added. The assay was started upon the addition of ATP (at Km). The 10 μL reaction was incubated at room temperature. The reaction was stopped upon the addition of detection buffer containing streptavidin-XL665 ([…]) and TK antibody-Eu3+([…]). After a 60 min incubation at room temperature, the fluorescence at 665 nm and 620 nm was read on an Envision microplate reader (Perkin Elmer).
(§2) Kinase activity normalized to DMSO (100% activity) and reference compound at […] and (0% activity) was calculated using the fluorescence ratio […]. IC50 values were calculated by nonlinear regression analysis using a 4-parameter logistic curve fit in ActivityBase XE (IDBS).
(§3) Example B-2: Human KDR (residues 790-1356; CarnaBio, 0.1 ng/well) was also incubated with enzymatic buffer (Cisbio) supplemented with 5 mM MgCl2, 1 mM MnCl2, and 1 mM DTT. The mixture was added to the pre-plated compounds. The reaction was initiated upon addition of ATP at Km (4.0 μM). The reaction was incubated at room temperature for 40 min and stopped upon the addition of SA-XL665 and TK-antibody both diluted in EDTA-containing kinase detection buffer (Cisbio). The kinase activity was calculated as stated above and the IC50 values were reported.

[2] = target: Human MER (residues 528-999) (Homo sapiens (Human), UniProt Q12866); experiment: Human Mer kinase assay, HTRF KinEase (Example C-2); format: biochemical
Protocol: as §1, §2
Example C-2: Human MER (residues 528-999; CarnaBio, 1 ng/well) was also incubated with enzymatic buffer (Cisbio) supplemented with 5 mM MgCl2 and 1 mM DTT. The mixture was added to the pre-plated compounds. The reaction was initiated upon addition of ATP at Km (40 μM). The reaction was incubated at room temperature for 60 min and stopped upon the addition of SA-XL665 and TK-antibody both diluted in EDTA-containing kinase detection buffer (Cisbio). The kinase activity was calculated as stated above and the IC50 values were reported.

[3] = target: Human MET (residues 956-1390) (Homo sapiens (Human), UniProt P08581); experiment: Human Met kinase assay, HTRF KinEase (Example D-2); format: biochemical; settings: read-out: c-Met IC50
Protocol: as §1, §2
as §3, with “D-2:” for “B-2:”, “MET” for “KDR”, “956-1390;” for “790-1356;”, “DTT” for “MnCl2,”, “MnCl2.” for “DTT.”, “The reaction was initiated upon addition of ATP at Km (4.0 μM).” left out

[4] = target: Mer (phospho-Mer, MERTK-transfected 293A cells) (Homo sapiens (Human), UniProt Q12866); experiment: Mer autophosphorylation ELISA in transient transfected 293A cells (Example H); format: cell-based; settings: cellular activity; Mer autophosphorylation ELISA in transient transfected 293A cells
How it was run: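 IC50 from 4-parameter logistic fit of phospho-Mer levels, quantified by ELISA against a phospho-Mer standard in lysates of MERTK-transfected 293A cells. Cells exposed 1 h to 8-point serial dilutions, serum-free, 0.3% DMSO; controls: DMSO (100%) and reference inhibitor (0%).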

[5] = protocol of Example B-2 (other compounds)
[6] = protocol of Example C-2 (other compounds)
[7] = protocol of Example D-2 (other compounds)

Sequence of Human KDR (residues 790-1356) (P35968 790-1356): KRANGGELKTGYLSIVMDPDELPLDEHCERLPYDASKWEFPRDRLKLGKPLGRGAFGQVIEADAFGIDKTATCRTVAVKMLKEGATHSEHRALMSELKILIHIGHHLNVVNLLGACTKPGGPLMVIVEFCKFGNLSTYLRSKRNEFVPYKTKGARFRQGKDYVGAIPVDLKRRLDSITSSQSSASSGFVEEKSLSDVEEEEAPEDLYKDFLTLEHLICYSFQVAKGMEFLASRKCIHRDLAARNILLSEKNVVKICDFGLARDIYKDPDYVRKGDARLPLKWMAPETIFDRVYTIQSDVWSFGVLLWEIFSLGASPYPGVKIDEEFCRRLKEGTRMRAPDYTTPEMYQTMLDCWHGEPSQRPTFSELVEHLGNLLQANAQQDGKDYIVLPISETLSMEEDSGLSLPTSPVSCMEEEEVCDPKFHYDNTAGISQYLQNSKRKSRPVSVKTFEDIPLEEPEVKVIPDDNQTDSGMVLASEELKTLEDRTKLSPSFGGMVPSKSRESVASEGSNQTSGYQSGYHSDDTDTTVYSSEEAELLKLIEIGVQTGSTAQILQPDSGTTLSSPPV
Sequence of Human MER (residues 528-999) (Q12866 528-999): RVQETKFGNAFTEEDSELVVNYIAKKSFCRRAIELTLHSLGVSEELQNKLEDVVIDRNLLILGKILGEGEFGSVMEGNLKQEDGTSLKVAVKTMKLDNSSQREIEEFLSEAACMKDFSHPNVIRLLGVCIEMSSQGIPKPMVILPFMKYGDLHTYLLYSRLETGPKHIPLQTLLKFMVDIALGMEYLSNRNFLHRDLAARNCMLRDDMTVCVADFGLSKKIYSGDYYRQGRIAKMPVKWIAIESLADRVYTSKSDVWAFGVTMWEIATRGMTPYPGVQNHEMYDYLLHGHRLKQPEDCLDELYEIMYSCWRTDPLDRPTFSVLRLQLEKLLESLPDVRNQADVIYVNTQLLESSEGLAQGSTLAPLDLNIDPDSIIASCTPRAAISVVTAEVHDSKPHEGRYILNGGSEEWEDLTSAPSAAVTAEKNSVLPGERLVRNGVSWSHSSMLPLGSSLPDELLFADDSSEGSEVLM
Sequence of Human MET (residues 956-1390) (P08581 956-1390): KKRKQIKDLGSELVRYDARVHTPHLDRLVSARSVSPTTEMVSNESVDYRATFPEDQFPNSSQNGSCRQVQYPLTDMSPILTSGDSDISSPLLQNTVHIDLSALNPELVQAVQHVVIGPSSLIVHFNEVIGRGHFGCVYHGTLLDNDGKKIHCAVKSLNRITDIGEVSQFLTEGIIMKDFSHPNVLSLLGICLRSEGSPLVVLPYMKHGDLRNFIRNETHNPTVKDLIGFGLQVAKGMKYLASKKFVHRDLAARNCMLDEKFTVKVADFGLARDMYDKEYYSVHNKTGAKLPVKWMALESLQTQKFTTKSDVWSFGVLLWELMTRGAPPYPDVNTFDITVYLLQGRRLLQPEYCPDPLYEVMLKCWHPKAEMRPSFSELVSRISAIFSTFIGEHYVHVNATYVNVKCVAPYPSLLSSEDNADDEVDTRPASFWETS
Sequence of Mer (phospho-Mer, MERTK-transfected 293A cells) (Q12866 21-999): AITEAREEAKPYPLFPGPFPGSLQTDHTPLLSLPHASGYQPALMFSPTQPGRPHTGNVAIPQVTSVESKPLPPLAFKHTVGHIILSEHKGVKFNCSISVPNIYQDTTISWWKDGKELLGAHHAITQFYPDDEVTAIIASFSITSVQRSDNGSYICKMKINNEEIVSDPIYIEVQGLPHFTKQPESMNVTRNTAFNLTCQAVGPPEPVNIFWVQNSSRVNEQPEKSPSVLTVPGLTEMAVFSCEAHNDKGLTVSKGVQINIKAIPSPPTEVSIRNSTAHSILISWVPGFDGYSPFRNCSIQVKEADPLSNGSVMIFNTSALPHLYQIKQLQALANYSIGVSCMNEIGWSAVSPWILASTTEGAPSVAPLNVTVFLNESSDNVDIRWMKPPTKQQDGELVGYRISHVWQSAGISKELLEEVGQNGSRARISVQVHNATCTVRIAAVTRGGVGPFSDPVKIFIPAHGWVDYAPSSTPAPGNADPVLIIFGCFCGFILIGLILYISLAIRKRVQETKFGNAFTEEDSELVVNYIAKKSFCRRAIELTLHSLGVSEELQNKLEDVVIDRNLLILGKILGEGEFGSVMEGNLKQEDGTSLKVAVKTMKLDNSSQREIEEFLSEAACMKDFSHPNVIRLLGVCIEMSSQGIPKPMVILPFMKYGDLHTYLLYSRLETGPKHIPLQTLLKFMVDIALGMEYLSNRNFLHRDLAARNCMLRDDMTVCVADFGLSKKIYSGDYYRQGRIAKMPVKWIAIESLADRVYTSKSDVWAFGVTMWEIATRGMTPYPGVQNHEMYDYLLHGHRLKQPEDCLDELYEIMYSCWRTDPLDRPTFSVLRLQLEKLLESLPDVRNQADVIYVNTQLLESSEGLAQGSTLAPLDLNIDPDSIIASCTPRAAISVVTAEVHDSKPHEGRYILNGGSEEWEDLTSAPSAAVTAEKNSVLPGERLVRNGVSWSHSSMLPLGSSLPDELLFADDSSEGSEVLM

IC50 [1, 5] [nM] | IC50 [2, 6] [nM] | IC50 [3, 7] [nM] | IC50 [4] [nM] | IC50 ([1]; protocol of Example B-2) [nM] | IC50 ([2]; protocol of Example C-2) [nM] | IC50 ([3]; protocol of Example D-2) [nM] | SMILES
– | – | – | – | > 300 | < 100 | > 300 | COc1nc2c(Oc3ccc(NC(=O)c4c(C)nc(C)c(-c5ccc(F)cc5)c4O)cc3F)ccnc2cc1C(C)C [Compound 592, N-[3-Fluoro-4-[(6-methoxy-7-propan-2-yl-1,5-naphthyridin-4-yl)oxy]phenyl]-5-(4-fluorophenyl)-4-hydroxy-2,6-dimethylpyridine-3-carboxamide]
– | – | – | – | > 300 | < 100 | > 300 | COc1nc2c(Oc3ccc(NC(=O)c4cnc(C)c(-c5ccc(F)cc5)c4O)cc3F)ccnc2cc1C(C)C [Compound 590, N-[3-Fluoro-4-[(6-methoxy-7-propan-2-yl-1,5-naphthyridin-4-yl)oxy]phenyl]-5-(4-fluorophenyl)-4-hydroxy-6-methylpyridine-3-carboxamide]
– | – | – | – | 100 to 300 | < 100 | > 300 | C=C(C)c1cc2nccc(Oc3ccc(NC(=O)c4c(C)nc(C)c(-c5ccc(F)cc5)c4O)cc3F)c2nc1OC [Compound 453, N-[3-fluoro-4-[(6-methoxy-7-prop-1-en-2-yl-1,5-naphthyridin-4-yl)oxy]phenyl]-5-(4-fluorophenyl)-4-hydroxy-2,6-dimethylpyridine-3-carboxamide]
– | – | – | – | 100 to 300 | < 100 | > 300 | C=C(C)c1cc2nccc(Oc3ccc(NC(=O)c4cnc(C)c(-c5ccc(F)cc5)c4O)cc3F)c2nc1OC [Compound 452, N-[3-fluoro-4-[(6-methoxy-7-prop-1-en-2-yl-1,5-naphthyridin-4-yl)oxy]phenyl]-5-(4-fluorophenyl)-4-hydroxy-6-methylpyridine-3-carboxamide]
– | – | – | – | > 300 | 100 to 300 | > 300 | COc1nc2c(Oc3ccc(NC(=O)c4cnc(C)c(-c5ccc(F)cc5C)c4O)cc3F)ccnc2cc1C(C)C [Compound 591, N-[3-Fluoro-4-[(6-methoxy-7-propan-2-yl-1,5-naphthyridin-4-yl)oxy]phenyl]-5-(4-fluoro-2-methylphenyl)-4-hydroxy-6-methylpyridine-3-carboxamide]
– | – | – | – | > 300 | < 100 | < 100 | COc1cc2nccc(Oc3ccc(NC(=O)c4cn(C(C)C)c(C)c(-c5ccc(F)cc5)c4=O)cc3F)c2nc1N(C)C [Compound 583, N-[4-[[6-(Dimethylamino)-7-methoxy-1,5-naphthyridin-4-yl]oxy]-3-fluorophenyl]-5-(4-fluorophenyl)-6-methyl-4-oxo-1-propan-2-ylpyridine-3-carboxamide]

The remaining lines, values behind:

SMILES | IC50 [1, 5] [nM] | IC50 [2, 6] [nM] | IC50 [3, 7] [nM] | IC50 [4] [nM] | IC50 ([1]; protocol of Example B-2) [nM] | IC50 ([2]; protocol of Example C-2) [nM] | IC50 ([3]; protocol of Example D-2) [nM]
COc1cnc2c(Oc3ccc(NC(=O)c4cn(C(C)(C)C)c(C)c(-c5ccc(F)cc5)c4=O)cc3)ccnc2c1 [Compound 165, 1-tert-Butyl-5-(4-fluorophenyl)-N-[4-[(7-methoxy-1,5-naphthyridin-4-yl)oxy]phenyl]-6-methyl-4-oxopyridine-3-carboxamide] | > 300 | < 100 | < 100 | < 100 | – | – | –
COc1cc2nccc(Oc3ccc(NC(=O)C4=C5CCCN5CC(c5ccc(F)cc5)C4=O)cc3F)c2nc1OC (single isomer, unassigned; enantiomer 2) [Compound 375, N-[4-[(6,7-dimethoxy-1,5-naphthyridin-4-yl)oxy]-3-fluorophenyl]-6-(4-fluorophenyl)-7-oxo-2,3,5,6-tetrahydro-1H-indolizine-8-carboxamide, enantiomer 2] | > 300 | < 100 | < 100 | – | – | – | –
COc1cc2nccc(Oc3ccc(NC(=O)c4c(C)nc(OC)c(-c5ccc(F)cc5)c4OC)cc3F)c2nc1OC [Compound 444, N-[4-[(6,7-dimethoxy-1,5-naphthyridin-4-yl)oxy]-3-fluorophenyl]-5-(4-fluorophenyl)-4,6-dimethoxy-2-methylpyridine-3-carboxamide] | > 300 | > 300 | > 300 | – | – | – | –
COc1cc2nccc(Oc3ccc(NC(=O)c4cnc(NC(=O)OC(C)(C)C)n(-c5ccc(F)cc5)c4=O)cc3F)c2nc1OC [Compound 344, tert-butyl N-[5-[[4-[(6,7-dimethoxy-1,5-naphthyridin-4-yl)oxy]-3-fluorophenyl]icarbamoyl]-1-(4-fluorophenyl)-6-oxopyrimidin-2-yl]carbamate] | 100 to 300 | < 100 | 100 to 300 | – | – | – | –
CCOc1nc(C)c(-c2ccc(F)cc2)c(O)c1C(=O)Nc1ccc(Oc2ccnc3cc(OC)c(OC)nc23)c(F)c1 [Compound 365, N-[4-[(6,7-dimethoxy-1,5-naphthyridin-4-yl)oxy]-3-fluorophenyl]-2-ethoxy-5-(4-fluorophenyl)-4-hydroxy-6-methylpyridine-3-carboxamide] | > 300 | 100 to 300 | > 300 | – | – | – | –
Cc1ncc(C(=O)Nc2ccc(Oc3ccnc4cc(C(F)(F)F)cnc34)cc2)c(O)c1-c1ccc(F)cc1 [Compound 150, 5-(4-Fluorophenyl)-4-hydroxy-6-methyl-N-[4-[[7-(trifluoromethyl)-1,5-naphthyridin-4-yl]oxy]phenyl]pyridine-3-carboxamide] | > 300 | < 100 | < 100 | – | – | – | –
COc1ccc2nccc(Oc3ccc(NC(=O)c4c[nH]c(=O)n(-c5ccc(F)cc5)c4=O)cc3)c2n1 [Compound 339, 3-(4-fluorophenyl)-N-[4-[(6-methoxy-1,5-naphthyridin-4-yl)oxy]phenyl]-2,4-dioxo-1H-pyrimidine-5-carboxamide] | > 300 | 100 to 300 | 100 to 300 | – | – | – | –
CC(C)n1cc(C(=O)Nc2ccc(Oc3ccnc4cc(F)cnc34)c(F)c2)c(=O)c(-c2ccc(F)cc2)c1 [Compound 161, N-[3-Fluoro-4-[(7-fluoro-1,5-naphthyridin-4-yl)oxy]phenyl]-5-(4-fluorophenyl)-4-oxo-1-propan-2-ylpyridine-3-carboxamide] | < 100 | < 100 | < 100 | – | – | – | –
Cc1c(-c2ccc(F)cc2)c(=O)c(C(=O)Nc2ccc(Oc3ccnc4cc(C(F)(F)F)cnc34)c(F)c2)cn1C(C)C [Compound 152, 5-(4-Fluorophenyl)-N-[3-fluoro-4-[[7-(trifluoromethyl)-1,5-naphthyridin-4-yl]oxy]phenyl]-6-methyl-4-oxo-1-propan-2-ylpyridine-3-carboxamide] | > 300 | > 300 | > 300 | – | – | – | –
COc1ccc2nccc(Oc3ccc(NC(=O)c4c[nH]c(=O)n(-c5ccc(F)cc5)c4=O)cc3F)c2n1 [Compound 103, N-[3-Fluoro-4-[(6-methoxy-1,5-naphthyridin-4-yl)oxy]phenyl]-3-(4-fluorophenyl)-2,4-dioxo-1H-pyrimidine-5-carboxamide] | > 300 | < 100 | < 100 | – | – | – | –
COc1ccc(-c2cn(C)cc(C(=O)Nc3ccc(Oc4ccnc5cc(OC)c(OC)nc45)c(F)c3)c2=O)cc1 [Compound 34, N-[4-[(6,7-Dimethoxy-1,5-naphthyridin-4-yl)oxy]-3-fluorophenyl]-5-(4-methoxyphenyl)-1-methyl-4-oxopyridine-3-carboxamide hydrochloride] | < 100 | < 100 | 100 to 300 | – | – | – | –
C=C(C)c1cc2nccc(Oc3ccc(NC(=O)c4cnc(C)c(-c5ccc(F)cc5C)c4O)cc3F)c2nc1OC [Compound 449, N-[3-fluoro-4-[(6-methoxy-7-prop-1-en-2-yl-1,5-naphthyridin-4-yl)oxy]phenyl]-5-(4-fluoro-2-methylphenyl)-4-hydroxy-6-methylpyridine-3-carboxamide] | – | – | – | – | > 300 | < 100 | > 300
